Results reported in patent publication US20250281465A1, “MOLECULES THAT ENHANCE EXTRACELLULAR VESICLE RELEASE” (priority 2022, published 2025).

Columns and labels:
[1] = system: C57BL/6 mice; experiment: In vivo adjuvanticity with ovalbumin as model antigen; parameters: species or system mouse; conditions: OVA 20 μg + compound 200 nmol i.m. days 0 and 21, day 28
Method: FIGS. 1A-1D. Intracellular Ca^2+ influx screening of 84 HTS hit candidate compounds. (A) THP-1 cells were loaded with the ratiometric Ca^2+ indicator, Fura-2, and treated with lonomycin (ION, 1 μM), Thapsigargin (1 μM), or 84 hit candidate compounds (10 μM) for 25 minutes. Data are presented as the area under the curve (AUG) of OD340/380 ratios corresponding to the intracellular Ca^2+ kinetics. The baseline-subtracted AUG was calculated using GraphPad Prism (GraphPad Software, San Diego, CA). (B) Ca^2+ mobilization by compound #634. mBMDCs were loaded with the ratiometric Ca^2+ indicator, Fura-8, and treated with ION (1 μM), or #634 (2 and 10 μM) for 25 minutes. The dashed line indicates the timing of compounds added. […] OVA-specific IgGI and IgG2c levels in sera were determined by ELISA. **p<0.01, ***p<0.001, ns (not significant) by KruskalWallis tests with Dunn's post hoc test vs. Veh. […]
Eighty-four hit candidate compounds were also screened for in vivo adjuvant activities using C57BL/6 mice and model antigen ovalbumin (OVA). […] Sera were collected on day 28, and OVA-specific immunoglobulins IgG1 and IgG2c were determined by ELISA (FIG. 1D).
The selected 80 compounds were first evaluated for purity and identity by HPLC-MS and compounds which were less than 90% pure were purified by Prep-HPLC. These were then evaluated for vaccine adjuvant activity in mice using a model antigen, ovalbumin (OVA). […]

[2] = system: mBMDCs; experiment: RNA sequencing analysis of mBMDCs; format: cell-based, mouse; conditions: 5 μM
Method: FIGS. 2A-2C. RNA sequencing analysis of mBMDC treated with compound #634, (A) mBMDCs were treated with compound #634 (5 μM) or Veh (0.1% DMSO) or in triplicate for 5 hours. RNA was isolated, and RNA-seq analysis was performed by UC San Diego IGM Genomic Center. Data were analyzed by UC San Diego Moore Cancer Center Biostatistics and Bioinformatics Shared Resources. […] (B) Kyoto Encyclopedia of Genes and Genomes (KEGG) pathway analysis. Normalized enrichment scores (NES) of the top 10 positively and negatively enriched genes sets (FDR≤0.05 and fold change >2).
mBMDCs were treated with compound 634 (5 μM) or Veh (0.1% DMSO) in triplicate for 5 hours. RNA was isolated, and RNA-seq analysis was performed. […] Data were analyzed by UC San Diego Moore Cancer Center Biostatistics and Bioinformatics Shared Resources.
RNA-seq and Data Analysis. mBMDCs (1.5×10^6 cells, 10^6 cells/mL×1.5 mL) were treated with Veh (0.1% DMSO), 634 (5 μM) for 5 hours, and then the total RNA was isolated using Quick-RNA™ Miniprep Kit (Zymo Research). Each group has triplicates. RNA-seq was performed by the sequencing core at the UC San Diego institute for Genomic Medicine Genomics Center. Briefly, paired-ended sequencing was performed on the Illumina NovaSeq 6000. Reads were aligned to the mouse reference genome (mm10) using STAR (ver. 2.5.1), and mRNA expression levels were calculated per gene using RSEM (ver. 1.3.0). Genes were filtered if more than 24 out of 27 of the samples (including compound 634, there were a total of 8 testing compounds and DMSO in triplicated samples) had counts <10. Raw counts were then quantile normalized and used as expression values in the subsequent analysis. Also, if mouse gene IDs corresponded with multiple human genes, the genes with highest variance in expression values were kept (Miller et al., 2011). A total of 11759 genes remained. Limma (liner models for microarray, using Rlimma package) trend tests were used for differential analysis based on log 2 expression values. The Benjamini-Hochberg procedure was applied to control the false discovery rate (FDR). […] RNA-seq data have been deposited in ArrayExpress, https://www.ebi.ac.uk/arrayexpress/(accession no. E-MTAB-12377) (Hayashi, 2022).

[3] = 5 hours, FDR≤0.05 and fold change >2

SMILES | Anti-OVA IgG1 level in sera [1] | Anti-OVA IgG2c level in sera [1] | FC Cdhr1 ([2]; 5 hours vs Veh, down-regulated) | FC Hrh1 ([2]; 5 hours vs Veh, down-regulated) | FC Cdh1 ([2]; 5 hours vs Veh, up-regulated) | FC Htr7 ([2]; 5 hours vs Veh, up-regulated) | FC Oit3 ([2]; 5 hours vs Veh, up-regulated) | FC Ppm1e ([2]; 5 hours vs Veh, up-regulated) | FC Sla2 ([2]; 5 hours vs Veh, up-regulated) | down-regulated genes [2, 3] [genes] | genes with modulated expression compared to Veh [2, 3] [genes] | up-regulated genes [2, 3] [genes]
CCOC(=O)c1c(NS(=O)(=O)c2cccc3c2N=S=N3)sc(C)c1C [#634, ethyl 2-(benzo[c][1,2,5]thiadiazole-4-sulfonamido)-4,5-dimethylthiophene-3-carboxylate] | appeared to be higher than the levels from animals immunized without adjuvant, although there were no significant differences | appeared to be higher than the levels from animals immunized without adjuvant, although there were no significant differences | – | – | – | – | – | – | – | – | – | –
CCOC(=O)c1c(NS(=O)(=O)c2cccc3nsnc23)sc(C)c1C [compound 634, Ethyl 2-(benzo[c][1,2,5]thiadiazole-4-sulfonamido)-4,5-dimethylthiophene-3-carboxylate] | – | – | 0.40 | 0.46 | 2.61 | 2.38 | 2.02 | 2.77 | 2.04 | 17 | 103 | 86
